Values of other authors as cited in patent publication US20050171131A1, “Diaminopyrimidine derivatives as growth hormone secrectgogue receptor (GHS-R) antagonists” (priority 2003, published 2005).
Non-standard residues stand in square brackets, D forms with d. No end group written: not given here.

[1] = repeated administration, ob/ob mice

With H-H[dW][dK]W[dF]K [[D-Lys-3]-GHRP] as the substance, how does the energy intake (lean mice, mice with diet induced obesity, ob/ob obese mice) read?
Its energy intake is “decrease energy intake”.

What about the “rate of gastric emptying” value (mice) of the same substance?
The value was “reduced the rate of gastric emptying”.

And the body weight [1]?
Its body weight is “decreased body weight”.

And the glycemic control [1]?
Its glycemic control is “improved glycemic control”.
